{
  "source": "patent US20040176316A1",
  "about": "“Compounds for the normalization of the sleep/wake cycle” (priority 2002, published 2004)",
  "key": {"[1]": {"details": "cited from earlier work"}, "cocaine user": {"test_system": "cocaine user", "test": "Level of activity as a function of time of day in a cocaine user without and with CDP-choline treatment (FIGS. 2A and 2B)", "format": "in vivo", "from_the_text": "FIGS. 2A and 2B are graphs of level of activity as a function of time of day without (A) and with (B) citicoline treatment. A, B, and C refer to use of alcohol, caffeine, and cocaine, respectively. The numbers indicate a craving for cocaine, based on a 10 point scale. Gray dots indicate ingestion of citicoline.\nCDP-choline and related compounds are also useful in the treatment of substance abuse disorders, such as alcohol, cocaine, opiate, opioid, nicotine, or tobacco usage or dependence (U.S. Pat. Nos. 5,958,896 and 6,103,703 and U.S. Provisional Application No. 60/424,972, filed Nov. 8, 2002). Since substance abuse disorders may cause a disruption in the quality of sleep or the sleep/wake cycle, the methods of the invention may be used to normalize the sleep/wake cycle or treat sleep disorders in patients with a substance abuse disorder. In addition, a substance abuse disorder and an abnormal sleep/wake cycle or sleep disorder may be treated simultaneously with the methods described herein. FIGS. 2A and 2B show data on the level of activity of a cocaine user for five days without treatment (FIG. 2A) and for 5 days after treatment with CDP-choline (FIG. 2B, monitoring began 4 days after treatment). […] In addition, the subject's use of cocaine (denoted by C) was eliminated with treatment, and the use of alcohol (denoted by A) was reduced."}, "[2]": {"details": "cited from earlier work", "remark": "listed apart in the source"}, "human subjects": {"test_system": "human subjects", "test": "Effects of citicoline on sleep quality and mood, rated by subjects on a 10 point scale (FIG. 1)", "format": "in vivo", "from_the_text": "FIG. 1 is a graph of the effects of citicoline on sleep quality and mood. […] The quality of sleep is improved, and the sleep/wake cycle is normalized after 2-4 weeks of citicoline treatment. This normalization of the sleep/wake cycle may further promote increased wakefulness or reduce fatigue or tiredness during the day. The administration of citicoline will also likely stabilize the homeostatic processes involved in sleep disorders such as insomnia, sleep apneas (central or obstructive), problem sleepiness, restless leg syndrome, periodic limb movements, and narcolepsy. In addition, citicoline may increase cognitive functioning (Alvarez et al. Methods Find Exp Clin Pharmacol 21:633-44, 1999; Fioravanti et al. Cochrane Database Syst. Rev. 4: CD000269, 2000) and may be used to increase cognitive performance in individuals in a sleep-deprived state, e.g., pilots, physicians, students, or others who may experience long periods without sleep."}, "[3]": {"details": "cited from earlier work", "remark": "listed apart in the source"}, "[4]": {"details": "after 2-4 weeks of citicoline treatment"}, "[5]": {"details": "human subjects, measured by the subjects on a 10 point scale, compared to placebo (FIG. 1)"}},
  "note": "“Also recorded” adds a separate entry of the source. Where two headings read alike, the source gives them in different places.",
  "data": [
    {"compound": "C[N+](C)(C)CCOP(=O)(O)OP(=O)([O-])OC[C@H]1O[C@@H](n2ccc(N)nc2=O)[C@H](O)[C@@H]1O", "note": "[CDP-choline, cytidine 5′-diphosphocholine]", "values": [
      {"measurement": "metabolic conversion after administration", "setting": "[1]; administered either orally or intravenously", "value": "rapidly metabolized to cytidine and choline; also recorded: rapidly converted into the two major circulating metabolites, choline and cytidine"},
      {"measurement": "CDP-choline and/or its metabolites absorbed", "setting": "[1]; orally administered", "value": "more than 99%"},
      {"measurement": "excreted in feces", "setting": "[1]; orally administered", "value": "less than 1%"},
      {"measurement": "excretion via lung", "setting": "[1]; share of dose", "value": 12.9, "unit": "%"},
      {"measurement": "excretion via urine", "setting": "[1]; share of dose", "value": 2.4, "unit": "%"},
      {"measurement": "rest of the dose metabolized and retained in tissues", "setting": "[1]; share of dose", "value": 83.9, "unit": "%"},
      {"measurement": "sleep/wake cycle", "setting": "cocaine user; 5 days of monitoring that began 4 days after treatment, vs five days without treatment", "value": "normalized to a diurnal pattern"},
      {"measurement": "cravings for cocaine (10 point scale)", "setting": "cocaine user; after treatment", "value": "reduced in intensity"},
      {"measurement": "level of activity during the day", "setting": "cocaine user; after treatment vs without treatment", "value": "more active during the day"},
      {"measurement": "use of alcohol", "setting": "cocaine user; with treatment", "value": "reduced"},
      {"measurement": "use of cocaine", "setting": "cocaine user; with treatment", "value": "eliminated"},
      {"measurement": "tolerability", "setting": "[2]; mammals", "value": "well tolerated"},
      {"measurement": "quality of sleep", "setting": "human subjects; [4]", "value": "improved"},
      {"measurement": "sleep/wake cycle", "setting": "human subjects; [4]", "value": "normalized"},
      {"measurement": "mood", "setting": "human subjects; [5]", "value": "increases"},
      {"measurement": "quality of sleep", "setting": "human subjects; [5]", "value": "increases"},
      {"measurement": "toxicity symptoms", "setting": "[3]; ingestion of large amounts in preclinical studies", "value": "common cholinergic symptoms (salivation, lacrimation, urination, defecation, and vomiting)"},
      {"measurement": "overdoses", "setting": "[3]; reported cases", "value": "no reported cases of overdoses"}
    ]},
    {"compound": "CN(CC(=O)O)C(=N)N", "note": "[Creatine, creatine]", "values": [
      {"measurement": "tolerability", "setting": "[2]; humans", "value": "well tolerated at relatively high doses"}
    ]},
    {"compound": "CC(=O)OC[C@H]1O[C@@H](n2ccc(=O)[nH]c2=O)[C@H](OC(C)=O)[C@@H]1OC(C)=O", "note": "[triacetyl uridine]", "values": [
      {"measurement": "tolerability", "setting": "[2]; in vivo", "value": "well tolerated"}
    ]},
    {"compound": "O=c1ccn([C@@H]2O[C@H](CO)[C@@H](O)[C@H]2O)c(=O)[nH]1", "note": "[uridine]", "values": [
      {"measurement": "tolerability", "setting": "[2]; humans", "value": "well tolerated"},
      {"measurement": "tolerability", "setting": "[2]; mammals", "value": "well tolerated"}
    ]}
  ]
}
